Experimental data reported in ChEMBL document CHEMBL1201862, “PubChem BioAssay data set” (2004).
The source made the active and inactive calls.

Tests used:
[1] = biological target: FAD-linked sulfhydryl oxidase ALR (Homo sapiens, UniProt P55789); assay: ALR-catalysed DTT oxidation blockers – biochemical, H2O2 detection, luminescence, cherry-pick, dose response (AID 493248)
Staphylococcus aureus = assay: Inhibitors of Bacterial Quorum Sensing Structure Activity Relationship (SAR) Analysis: Dose Response Assay. [Related pubchem assays: 700, 527 ]; format: functional, organism-based
[2] = viability of PTEN-deleted HCT116 cells – cell-based, HCT116 PTEN knockout, dose response (AID 1047); format: functional;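 further: HCT116 colon tumor cells with PTEN knocked out; cells exposed to compound for 60 hours before readout; potency for loss of cell viability measured by luminescence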
X-box-binding protein 1 = X-box-binding protein 1 (Homo sapiens, UniProt P17861); format: functional, Cricetulus griseus;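 further: confirmatory dose-response counter-screen serving a CHOP assay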
[3] = viability of HCT116 lacking mutant beta-catenin – cell-based, human colon tumor, dose response (AID 1045); format: functional;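 further: HCT116 colon tumor cells with beta catenin knocked out; cells exposed to compound for 60 hours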
[4] = biological target: Envelope glycoprotein gp160 (Human immunodeficiency virus 1, UniProt Q6QLK5); assay: cell-free HIV fusion peptide-binding blockers – biochemical, uHTS, fluorescence dequenching, […] (AID 1986)
CAAX prenyl protease 2 = biological target: T1, CAAX prenyl protease 2 (Saccharomyces cerevisiae S288c, UniProt Q03530); format: biochemical
T1 sequence (Q03530 whole entry): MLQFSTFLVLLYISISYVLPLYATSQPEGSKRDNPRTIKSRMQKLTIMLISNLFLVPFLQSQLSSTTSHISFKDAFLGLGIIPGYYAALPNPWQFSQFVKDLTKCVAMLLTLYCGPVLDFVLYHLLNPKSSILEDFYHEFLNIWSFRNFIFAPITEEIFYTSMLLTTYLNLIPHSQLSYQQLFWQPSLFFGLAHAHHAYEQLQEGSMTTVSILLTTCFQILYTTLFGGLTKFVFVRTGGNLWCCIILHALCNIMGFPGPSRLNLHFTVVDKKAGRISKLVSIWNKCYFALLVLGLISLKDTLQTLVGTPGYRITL

Trypsin = Trypsin (Sus scrofa, UniProt P00761); assay: trypsin protease activity blockade – biochemical, quenched peptide fluorescence, cherry-pick, selectivity assay for Rce1 protease inhibitor project, dose response (AID 488789)
HEK293 [5] = assay: PMA/Ionomycin induced NF-kB luciferase assay in 293- NF-kB-Luc stable cells. [Related pubchem assays: 1299, 1270, 1295, 1375, 1287, 1281, 1293, 1291, 1289, 1280, 465, 1364, 1282, 1372, 1365, 1370, 1367, 1366, 1269, 1373, 1292, 1290, 1302, 1371, 1283, 1271, 1294, 1374, 1368, 1369 ]; format: functional, cell-based; details: Homo sapiens
[6] = biological target: Luciferin 4-monooxygenase (Photinus pyralis, UniProt P08659); assay: In vitro luciferase assay using purified luciferase. [Related pubchem assays: 1299, 1270, 1295, 1375, 1287, 1281, 1293, 1291, 1289, 1280, 465, 1364, 1282, 1372, 1365, 1370, 1367, 1366, 1266, 1373, 1292, 1290, 1302, 1371, 1283, 1271, 1294, 1374, 1368, 1369 ]
HEK293 [7] = assay: Cytotoxicity assay in HEK293 cells. [Related pubchem assays (depositor defined):AID1266, AID1269, AID1270, AID1271, AID1280, AID1281, AID1282, AID1283, AID1287, AID1289, AID1290, AID1291, AID1292, AID1293, AID1294, AID1295, AID1299, AID1302, AID1364, AID1365, AID1366, AID1367, AID1369, AID1370, AID1371, AID1372, AID1373, AID1374, AID1375, AID1384 …; format: functional, cell-based; details: Homo sapiens
HEK293 [8] = assay: TNF Induced NF-kB Luciferase in 293-NF-kB-Luc Stable Cells. [Related pubchem assays: 1266, 1299, 1269, 1373, 1292, 1290, 1302, 1371, 1283, 1270, 1295, 1271, 1375, 1294, 1374, 1281, 1293, 1291, 1289, 1280, 465, 1368, 1364, 1282, 1372, 1365, 1369, 1370, 1367, 1366 ]; format: functional, cell-based; details: Homo sapiens
[9] = biological target: T2, Protein phosphatase methylesterase 1 (Homo sapiens, UniProt Q9Y570); assay: endogenous PME-1 and serine hydrolase inhibition – cell lysate, mouse brain cytosol, FP-rhodamine, gel ABPP, selectivity assay for PME-1 inhibitor project, dose response, panel member PME-1 Assay Panel member description: Inhibition of endogenously expressed PME-1 (AID 2366)
[10] = biological target: T2, Protein phosphatase methylesterase 1; assay: Late stage results from the probe development effort to identify inhibitors of the protein methylesterase PME-1: Gel-based Activity-Based Protein Profiling (ABPP) IC50: Purified enzyme.; format: functional

T2 sequence (Q9Y570 whole entry): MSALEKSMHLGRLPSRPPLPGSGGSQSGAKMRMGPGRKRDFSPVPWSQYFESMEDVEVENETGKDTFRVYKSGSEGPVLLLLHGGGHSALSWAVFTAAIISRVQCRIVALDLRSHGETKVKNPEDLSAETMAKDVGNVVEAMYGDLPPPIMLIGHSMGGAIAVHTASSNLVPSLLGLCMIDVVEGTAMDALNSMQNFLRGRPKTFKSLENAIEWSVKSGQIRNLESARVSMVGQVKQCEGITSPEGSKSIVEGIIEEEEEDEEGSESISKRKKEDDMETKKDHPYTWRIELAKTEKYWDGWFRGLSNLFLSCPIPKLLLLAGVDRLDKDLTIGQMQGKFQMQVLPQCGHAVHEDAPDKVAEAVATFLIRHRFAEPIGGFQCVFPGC
Envelope glycoprotein gp160, sequence (Q6QLK5 whole entry, the tested form may be a part): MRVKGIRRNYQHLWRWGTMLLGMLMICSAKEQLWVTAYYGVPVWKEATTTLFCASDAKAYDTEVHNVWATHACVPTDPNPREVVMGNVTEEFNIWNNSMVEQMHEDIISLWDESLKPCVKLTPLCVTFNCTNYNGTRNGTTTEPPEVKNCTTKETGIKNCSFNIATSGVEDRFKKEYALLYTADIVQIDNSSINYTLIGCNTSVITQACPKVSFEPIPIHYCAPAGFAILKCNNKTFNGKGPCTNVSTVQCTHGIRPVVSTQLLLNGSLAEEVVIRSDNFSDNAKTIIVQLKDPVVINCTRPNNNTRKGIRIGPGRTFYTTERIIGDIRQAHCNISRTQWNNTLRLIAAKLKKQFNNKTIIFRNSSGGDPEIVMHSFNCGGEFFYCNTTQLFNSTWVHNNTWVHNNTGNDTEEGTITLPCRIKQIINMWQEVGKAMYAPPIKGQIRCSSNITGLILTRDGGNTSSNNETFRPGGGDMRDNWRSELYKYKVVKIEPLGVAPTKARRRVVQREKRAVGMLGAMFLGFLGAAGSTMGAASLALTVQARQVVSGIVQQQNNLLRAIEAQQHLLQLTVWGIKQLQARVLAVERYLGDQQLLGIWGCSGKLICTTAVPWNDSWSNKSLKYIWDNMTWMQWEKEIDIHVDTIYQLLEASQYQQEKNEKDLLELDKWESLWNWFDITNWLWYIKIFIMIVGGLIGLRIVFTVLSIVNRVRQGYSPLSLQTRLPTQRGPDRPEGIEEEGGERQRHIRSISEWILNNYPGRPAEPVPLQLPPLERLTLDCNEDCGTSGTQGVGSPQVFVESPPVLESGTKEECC
Luciferin 4-monooxygenase, sequence (P08659 whole entry): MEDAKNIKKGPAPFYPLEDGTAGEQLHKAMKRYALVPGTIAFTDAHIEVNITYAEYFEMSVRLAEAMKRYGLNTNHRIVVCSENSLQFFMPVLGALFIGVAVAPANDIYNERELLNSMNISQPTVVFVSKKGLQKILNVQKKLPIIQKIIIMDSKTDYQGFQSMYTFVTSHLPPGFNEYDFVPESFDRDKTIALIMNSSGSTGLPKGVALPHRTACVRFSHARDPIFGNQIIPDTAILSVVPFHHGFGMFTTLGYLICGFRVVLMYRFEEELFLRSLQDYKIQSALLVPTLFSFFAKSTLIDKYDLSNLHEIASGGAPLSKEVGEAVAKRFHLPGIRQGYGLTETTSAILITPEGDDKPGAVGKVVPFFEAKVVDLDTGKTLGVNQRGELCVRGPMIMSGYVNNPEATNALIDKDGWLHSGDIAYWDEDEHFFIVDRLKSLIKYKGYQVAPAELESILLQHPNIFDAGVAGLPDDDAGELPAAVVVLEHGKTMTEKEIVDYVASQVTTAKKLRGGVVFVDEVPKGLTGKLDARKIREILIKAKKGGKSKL
FAD-linked sulfhydryl oxidase ALR, sequence (P55789 whole entry): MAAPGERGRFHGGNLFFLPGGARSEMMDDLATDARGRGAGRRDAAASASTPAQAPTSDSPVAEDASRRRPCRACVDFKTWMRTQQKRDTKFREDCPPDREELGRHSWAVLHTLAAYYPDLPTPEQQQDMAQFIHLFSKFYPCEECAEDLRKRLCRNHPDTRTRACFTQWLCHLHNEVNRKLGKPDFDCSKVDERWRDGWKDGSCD
X-box-binding protein 1, sequence (P17861 whole entry): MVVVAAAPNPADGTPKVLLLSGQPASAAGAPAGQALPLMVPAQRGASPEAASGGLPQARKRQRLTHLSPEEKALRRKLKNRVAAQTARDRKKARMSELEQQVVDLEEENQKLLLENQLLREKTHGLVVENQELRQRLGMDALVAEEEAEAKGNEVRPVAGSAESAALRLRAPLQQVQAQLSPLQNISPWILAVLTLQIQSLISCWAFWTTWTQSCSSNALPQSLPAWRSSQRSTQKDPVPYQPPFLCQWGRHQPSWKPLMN
Trypsin, sequence (P00761 whole entry): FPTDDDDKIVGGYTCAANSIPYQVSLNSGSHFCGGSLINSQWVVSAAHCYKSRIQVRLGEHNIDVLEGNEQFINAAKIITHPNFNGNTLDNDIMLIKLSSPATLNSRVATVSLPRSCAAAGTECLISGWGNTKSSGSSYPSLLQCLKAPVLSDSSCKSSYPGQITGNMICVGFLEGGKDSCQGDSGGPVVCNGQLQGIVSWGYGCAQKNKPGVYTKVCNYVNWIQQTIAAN

COc1c(F)c(F)c(C(=O)O)c(Nc2ccc(C)cc2C)c1F
AC50 [1]: 15.9 µM (active)
IC50 (Staphylococcus aureus): 0.579 µM (active)

NC(N)=C1C(=O)N(C2CCCCC2)C(=O)N(C2CCCCC2)C1=O
EC50 [2]: 24 µM (active)
Absolute IC50 (XBP1) (X-box-binding protein 1): 10 µM
EC50 [3]: 25.5 µM (active)

C/C(=C/CCC(C)C1CCC2(C)C3CCC4C(C)(C)C(=O)CCC4(C)C3=CCC12C)C(=O)O (centres undefined)
IC50 [4]: > 99 µM (inactive)

O=C1c2cccc(OCC(=O)N3N=C(c4cccs4)CC3c3ccc(F)cc3)c2CCN1Cc1cccnc1 (centres undefined)
AC50 (CAAX prenyl protease 2): 13.1 µM (active)
AC50 (Trypsin): 12.9 µM (active)

COc1ccc2ccccc2c1C(=O)/C=C/c1cccnc1
EC50 (HEK293 [5]): 0.644 µM (active)
EC50 [6]: > 8 µM (not active)
EC50 (HEK293 [7]): 8.48 µM (inactive)
EC50 (HEK293 [8]): 3.5 µM (active)

CS(=O)(=O)/C(C#N)=C/c1ccc[nH]1
IC50 [9]: > 20 µM (inactive)
IC50 [10]: > 20 µM (not active)
